Source: ChEMBL document CHEMBL1201862, “PubChem BioAssay data set” (2004)
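The compound was tested at five concentrations on cells cultured in 96-well plates, with a 48-hour exposure period. GI50: concentration for 50% inhibition of growth.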 Activity calls are given as the source filed them. Rule as the data show it: active = GI50 up to about 1.1 µM and inactive = higher.

Columns and labels:
Assay in all cases: DTP human tumour cell line panel, 48 h
A549 = tested on: A549
COLO 205 = tested on: COLO 205
HCT-116 = tested on: HCT-116
IGROV-1 = tested on: IGROV-1
KM12 = tested on: KM12
M14 = tested on: M14
Malme-3M = tested on: Malme-3M
NCI-H226 = tested on: NCI-H226
OVCAR-3 = tested on: OVCAR-3
OVCAR-4 = tested on: OVCAR-4
SF-295 = tested on: SF-295
SF-539 = tested on: SF-539
SK-MEL-28 = tested on: SK-MEL-28
SN12C = tested on: SN12C
SNB-75 = tested on: SNB-75
U-251 = tested on: U-251
UACC-62 = tested on: UACC-62
UO-31 = tested on: UO-31
RPMI-8226 = tested on: RPMI-8226

Measured: GI50

CC1(C)OC2OC(/C=C/[N+](=O)[O-])C3OC(C)(C)OC3C2O1 (stereo unspecified)
inactive: A549 20.3 µM | COLO 205 4.6 µM | HCT-116 9.06 µM | IGROV-1 34.9 µM | KM12 17.2 µM | M14 12.3 µM | Malme-3M 5.35 µM | NCI-H226 20.5 µM | OVCAR-3 16.4 µM | OVCAR-4 16.3 µM | SF-295 19.5 µM | SF-539 13.6 µM | SK-MEL-28 18.2 µM | SN12C 15.6 µM | SNB-75 20.2 µM | U-251 17.3 µM | UACC-62 15.1 µM | UO-31 20.4 µM

COc1cccc(N2C(=O)c3c(c4[nH]c5ccccc5c4c4ccc(C(C)(C)C)cc34)C2=O)c1
inactive: A549 > 100 µM | COLO 205 > 100 µM | HCT-116 > 100 µM | IGROV-1 > 100 µM | KM12 > 100 µM | M14 > 100 µM | Malme-3M > 100 µM | NCI-H226 > 100 µM | OVCAR-3 > 100 µM | OVCAR-4 > 100 µM | SF-295 > 100 µM | SF-539 > 100 µM | SK-MEL-28 > 100 µM | SN12C > 100 µM | SNB-75 > 100 µM | U-251 > 100 µM | UACC-62 > 100 µM | UO-31 > 100 µM

OCC(O)C(OC1OC(CO)C(O)C(O)C1O)c1nn(-c2ccccc2)c2nc3cc(Cl)c(Cl)cc3cc12 (stereo unspecified)
inactive: HCT-116 > 100 µM | KM12 45 µM | M14 > 100 µM | Malme-3M > 100 µM | OVCAR-3 > 100 µM | OVCAR-4 > 100 µM | RPMI-8226 > 100 µM | SF-295 > 100 µM | SF-539 > 100 µM | SK-MEL-28 > 100 µM | SN12C > 100 µM | SNB-75 > 100 µM | U-251 > 100 µM | UACC-62 > 100 µM | UO-31 > 100 µM

COc1ccc(Nc2nc3c(N)cc(C(F)(F)F)cc3nc2-c2ccccc2)cc1OC
inactive: A549 22 µM | COLO 205 55.7 µM | HCT-116 25.6 µM | IGROV-1 22.3 µM | KM12 29.3 µM | M14 28.6 µM | Malme-3M 16.4 µM | NCI-H226 24.2 µM | OVCAR-3 18.8 µM | OVCAR-4 11.9 µM | SF-295 19.7 µM | SF-539 18.2 µM | SK-MEL-28 26.2 µM | SN12C 20.2 µM | SNB-75 4.85 µM | U-251 11.3 µM | UACC-62 19.7 µM | UO-31 30.3 µM

CCCCCCCCCCCCCP(=O)(O)O
inactive: A549 > 100 µM | COLO 205 > 100 µM | HCT-116 > 100 µM | IGROV-1 > 100 µM | KM12 > 100 µM | M14 > 100 µM | Malme-3M > 100 µM | NCI-H226 > 100 µM | OVCAR-3 > 100 µM | OVCAR-4 > 100 µM | SF-295 > 100 µM | SF-539 > 100 µM | SK-MEL-28 > 100 µM | SN12C > 100 µM | SNB-75 23.2 µM | U-251 45.2 µM | UACC-62 > 100 µM | UO-31 > 100 µM

Cc1cc([N+](=O)[O-])ccc1Sc1c2ccccc2nc2ccccc12
inactive: A549 64.6 µM | COLO 205 39.9 µM | HCT-116 22.5 µM | IGROV-1 28.4 µM | KM12 18.5 µM | M14 32.6 µM | Malme-3M > 100 µM | NCI-H226 > 100 µM | OVCAR-3 41.4 µM | OVCAR-4 57.8 µM | SF-295 39.4 µM | SF-539 28.4 µM | SK-MEL-28 > 100 µM | SN12C 39.6 µM | SNB-75 39.6 µM | U-251 28.5 µM | UACC-62 25.1 µM | UO-31 44.7 µM

N#CC(C(=N/NC(N)=S)/C(=N/NC(N)=S)C(C#N)c1ccc(Cl)cc1)c1ccc(Cl)cc1 (stereo unspecified)
inactive: A549 > 100 µM | COLO 205 > 100 µM | HCT-116 > 100 µM | IGROV-1 > 100 µM | KM12 > 100 µM | M14 > 100 µM | Malme-3M > 100 µM | NCI-H226 > 100 µM | OVCAR-3 80 µM | OVCAR-4 > 100 µM | SF-295 > 100 µM | SF-539 > 100 µM | SK-MEL-28 81.3 µM | SN12C > 100 µM | SNB-75 31.3 µM | U-251 > 100 µM | UACC-62 59.6 µM | UO-31 > 100 µM

CCOC(=O)c1cc(=O)n(C)c(=O)n1C
inactive: A549 > 100 µM | COLO 205 > 100 µM | HCT-116 > 100 µM | IGROV-1 > 100 µM | KM12 > 100 µM | M14 > 100 µM | Malme-3M > 100 µM | NCI-H226 > 100 µM | OVCAR-3 > 100 µM | OVCAR-4 > 100 µM | SF-295 > 100 µM | SF-539 > 100 µM | SK-MEL-28 > 100 µM | SN12C > 100 µM | SNB-75 > 100 µM | U-251 > 100 µM | UACC-62 > 100 µM | UO-31 > 100 µM

CC1=N/C(=C\c2ccc(/C=C3/N=C(C)OC3=O)cc2)C(=O)O1
inactive: A549 > 100 µM | COLO 205 > 100 µM | HCT-116 > 100 µM | IGROV-1 > 100 µM | KM12 > 100 µM | M14 > 100 µM | Malme-3M > 100 µM | OVCAR-3 > 100 µM | OVCAR-4 > 100 µM | RPMI-8226 > 100 µM | SF-539 > 100 µM | SK-MEL-28 > 100 µM | SN12C > 100 µM | SNB-75 > 100 µM | U-251 > 100 µM | UACC-62 > 100 µM | UO-31 > 100 µM

Cc1cccc(Cl)c1NCC(O)CN1CCN(C)CC1 (stereo unspecified)
inactive: A549 > 100 µM | HCT-116 > 100 µM | IGROV-1 > 100 µM | KM12 > 100 µM | M14 > 100 µM | Malme-3M > 100 µM | NCI-H226 > 100 µM | OVCAR-3 > 100 µM | OVCAR-4 > 100 µM | SF-295 > 100 µM | SK-MEL-28 > 100 µM | SN12C > 100 µM | SNB-75 > 100 µM | U-251 > 100 µM | UACC-62 > 100 µM | UO-31 > 100 µM

COC(=O)[C@]1(C)CCC[C@]2(C)C3CC4OOC3(C=C4C(C)(C)O)CCC21 (stereo partly specified)
inactive: A549 38.4 µM | COLO 205 69.8 µM | HCT-116 31.8 µM | IGROV-1 72.4 µM | KM12 42.7 µM | M14 31 µM | Malme-3M > 100 µM | NCI-H226 31.1 µM | OVCAR-3 > 100 µM | OVCAR-4 72.9 µM | RPMI-8226 16.7 µM | SF-295 95.9 µM | SF-539 > 100 µM | SN12C > 100 µM | U-251 > 100 µM | UACC-62 29.2 µM | UO-31 > 10 µM
